The values that follow come from patent US12187684B2, “Benzimidazole derivatives as modulators of retinoid-related orphan receptor gamma (RORγ) and pharmaceutical use thereof” (Jiangsu Hengrui Medicine Co., Ltd., priority 2018, dated 2025).

One test has as its target T1, RORγ LBD-GST tagged (Homo sapiens, UniProt P51449).
T1 construct: RORγ LBD-GST tagged (Cat No. RORC-114H, Creative Biomart); purchased Creative Biomart RORC-114H
T1 sequence (P51449 269-508 limits assumed): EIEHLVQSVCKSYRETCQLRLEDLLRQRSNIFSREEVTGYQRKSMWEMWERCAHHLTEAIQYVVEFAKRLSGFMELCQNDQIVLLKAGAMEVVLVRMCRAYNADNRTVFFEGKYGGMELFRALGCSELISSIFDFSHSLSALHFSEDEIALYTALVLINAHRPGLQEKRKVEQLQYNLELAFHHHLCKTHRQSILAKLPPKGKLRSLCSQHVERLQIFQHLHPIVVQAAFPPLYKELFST
Nature of the test: LanthaScreen TR-FRET RORγ coactivator assay. As to conditions: Fluorescein-D22 coactivator peptide, 1 hour room temperature. The class given is biochemical. The gist of the method: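 GST-tagged RORγ LBD (25 ng/reaction) was incubated in coregulator buffer D with 5 mM DTT and compound (top 3 μM, 7-fold steps, 7 doses), then with a mix containing 0.6 μM fluorescein-D22 peptide and 8 nM Tb anti-GST antibody. After 1 h at room temperature in the dark, 520/495 nm TR-FRET was read. IC50 came from log concentration versus percent inhibition.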
A general note: Time-resolved FRET reads energy transfer from a long-lived donor to a nearby acceptor.

Test [1] relates to IL-17 production, human PBMC cells. Nature of the test: IL-17 production assay using human PBMC. It counts as cell-based. To be noted: human PBMC stimulated by cytostim for 3 days, IL-17 ELISA of supernatant. The procedure, abridged: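 Cryopreserved human PBMCs, 1×10^5 per well in TexMACS, were treated with compound or vehicle (<0.5% DMSO) and stimulated with Cytostim (10 μL/mL) for 3 days at 37 °C. Supernatant IL-17 was measured by ELISA. IC50 was taken from concentration versus percent inhibition.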

A word on the IC50: it is the concentration at which inhibition is half-maximal. A lower IC50 goes with greater potency in that assay. Consider `CCS(=O)(=O)c1ccc(C(O)c2nc3c(Cl)c(-c4ccccc4OC(F)(F)F)c(Cl)cc3[nH]2)c(F)c1` (centres unmarked) [Example 78, (4,6-dichloro-5-(2-(trifluoromethoxy)phenyl)-1H-benzo[d]imidazol-2-yl)(4-(ethylsulfonyl)-2-fluorophenyl)methanol], for which the IC50 at RORγ LBD-GST tagged is 0.028 µM; in test [1] (Homo sapiens, PBMC, 72 h), 0.069 µM.
As to `NC(=O)CC(c1ccc(S(=O)(=O)CC2CC2)cc1)c1nc2cc(Cl)c(N3CCC(F)(F)CC3)c(Cl)c2[nH]1` (centres unmarked) [Example 154, 3-(4-((cyclopropylmethyl)sulfonyl)phenyl)-3-(5,7-dichloro-6-(4,4-difluoropiperidin-1-yl)-1H-benzo[d]imidazol-2-yl)propanamide], the IC50 against RORγ LBD-GST tagged was found to be 0.049 µM; in test [1] (Homo sapiens, PBMC, 72 h), 0.077 µM.
For `CCS(=O)(=O)c1ccc(C(CC(N)=O)c2nc3c(Cl)c(N4CCC(F)(F)CC4)c(Cl)cc3[nH]2)cc1` (single isomer, unassigned) [the longer retention time of 146 and 147, 3-(4,6-dichloro-5-(4,4-difluoropiperidin-1-yl)-1H-benzo[d]imidazol-2-yl)-3-(4-(ethylsulfonyl)phenyl)propanamide], the IC50 at RORγ LBD-GST tagged was 0.004 µM; in test [1], 0.014 µM.
For `CCS(=O)(=O)c1ccc(C(O)c2nc3c(Cl)c(-c4ccccc4OC(F)(F)F)c(Cl)cc3[nH]2)cc1` (centres unmarked) [Example 5, (4,6-dichloro-5-(2-(trifluoromethoxy)phenyl)-1H-benzo[d]imidazol-2-yl)(4-(ethylsulfonyl)phenyl)methanol], the IC50 against RORγ LBD-GST tagged was determined as 0.626 µM; in test [1] (Homo sapiens, PBMC, 72 h) it was 0.025 µM.
Regarding `CC(=O)NCCC(c1ccc(S(=O)(=O)CC2CC2)cc1)c1nc2cc(-c3ccccc3OC(F)F)c(Cl)cc2[nH]1` (single isomer, unassigned) [166 or 167 made from Int-164B, (R or S)—N-(3-(6-chloro-5-(2-(difluoromethoxy)phenyl)-1H-benzo[d]imidazol-2-yl)-3-(4-((cyclopropylmethyl)sulfonyl)phenyl)propyl)acetamide], the IC50 on RORγ LBD-GST tagged turned out to be 0.047 µM; in test [1] it was 0.072 µM.
For `O=S(=O)(CC1CC1)c1ccc(C(CO)c2nc3c(Cl)c(-c4ccccc4OC(F)F)c(Cl)cc3[nH]2)c(F)c1` (centres unmarked) [Example 99, 2-(4-((cyclopropylmethyl)sulfonyl)-2-fluorophenyl)-2-(4,6-dichloro-5-(2-(difluoromethoxy)phenyl)-1H-benzo[d]imidazol-2-yl)ethanol], the IC50 worked out at 0.025 µM against RORγ LBD-GST tagged and 0.0024 µM in test [1] (Homo sapiens, PBMC, 72 h).
As to `CCS(=O)(=O)c1ccc(Cc2nc3c(Cl)c(-c4ccccc4OCC(F)(F)F)c(Cl)cc3[nH]2)cc1` [Example 31, 4,6-dichloro-2-(4-(ethylsulfonyl)benzyl)-5-(2-(2,2,2-trifluoroethoxy)phenyl)-1H-benzo[d]imidazole], the IC50 against RORγ LBD-GST tagged is 0.01 µM; in test [1] (Homo sapiens, PBMC, 72 h) it was 0.011 µM.
Regarding `CCS(=O)(=O)c1ccc(Cc2nc3c(Cl)c(-c4ccccc4OC(F)(F)F)c(Cl)cc3[nH]2)c(Cl)c1` [Example 86, 4,6-dichloro-2-(2-chloro-4-(ethylsulfonyl)benzyl)-5-(2-(trifluoromethoxy)phenyl)-1H-benzo[d]imidazole], the half-maximal inhibitory concentration (IC50) on RORγ LBD-GST tagged was determined as 0.075 µM; in test [1] (Homo sapiens, PBMC, 72 h) it was 0.023 µM.
Consider `O=S(=O)(CC1CC1)c1ccc(C(CO)c2nc3c(Cl)c(-c4ccccc4OC(F)F)c(Cl)cc3[nH]2)cc1` (centres unmarked) [Example 73, 2-(4-((cyclopropylmethyl)sulfonyl)phenyl)-2-(4,6-dichloro-5-(2-(difluoromethoxy)phenyl)-1H-benzo[d]imidazol-2-yl)ethanol], for which the IC50 on RORγ LBD-GST tagged is 0.029 µM; in test [1] (Homo sapiens, PBMC, 72 h), 0.001 µM.
On to `CCS(=O)(=O)c1ccc(C(O)c2nc3c(Cl)c(-c4ccccc4C#N)c(Cl)cc3[nH]2)cc1` (centres unmarked) [Example 23, 2-(4,6-dichloro-2-((4-(ethylsulfonyl)phenyl)(hydroxy)methyl)-1H-benzo[d]imidazol-5-yl)benzonitrile], for which the IC50 was found to be 0.318 µM against RORγ LBD-GST tagged and 0.075 µM in test [1] (Homo sapiens, PBMC, 72 h).
